Among the data in PubChem BioAssay (NCI) are TGI and GI50 values, retold here.

Among the test systems are SK-MEL-28 melanoma; SN12C renal; RXF 393 renal; NCI-H522 lung; OVCAR-5 ovarian; NCI-H23 lung; 786-0 renal; EKVX NSCLC; K-562 leukemia; NCI/ADR-RES ovarian.
Common to all, as to experiment: growth of human tumour cells (NCI), 48 h

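These data come from cells grown in 96-well plates and exposed to compound for 48 hours at five concentrations. The concentration for 50% growth inhibition is given as GI50. TGI: concentration producing complete growth inhibition.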

For `COc1cc(C(C)c2cc3c(cc2OCCNC(=O)COc2cc4c(cc2C(C)c2cc(OC)c(OC)c(OC)c2)OCO4)OCO3)cc(OC)c1OC` (stereo unspecified), the TGI with SK-MEL-28 melanoma was > 100 µM; in the assay with SN12C renal it was > 100 µM; with RXF 393 renal, > 100 µM; in the assay with NCI-H522 lung, 92.6 µM; in the assay with OVCAR-5 ovarian it was > 100 µM; with NCI-H23 lung it was > 100 µM. In addition, the TGI in the assay with 786-0 renal, in the assay with EKVX NSCLC and in the assay with K-562 leukemia was > 100 µM throughout.

For `Cc1nc(/C=C2\C(=O)C=Cc3ccccc32)c(O)o1`, the TGI in the assay with SK-MEL-28 melanoma, with SN12C renal, in the assay on RXF 393 renal, in the assay on NCI-H522 lung, with OVCAR-5 ovarian and in the assay on NCI-H23 lung was > 100 µM in each case. Further, the TGI in the assay on 786-0 renal, in the assay on EKVX NSCLC and in the assay on K-562 leukemia was > 100 µM throughout.

For the compound `O=C1C=Cc2c1ccc1ccccc21`, the GI50 was 80.4 µM with SK-MEL-28 melanoma; 6.55 µM in the assay with SN12C renal; 27.6 µM with NCI-H522 lung; 16.1 µM in the assay with OVCAR-5 ovarian; 27.4 µM with NCI-H23 lung; 21.3 µM with 786-0 renal. For the same compound, the GI50 in the assay on EKVX NSCLC is 12.6 µM; in the assay with K-562 leukemia, 28.7 µM; with NCI/ADR-RES ovarian, 31.9 µM. For the same compound, the TGI is > 100 µM in the assay with SK-MEL-28 melanoma; 35.7 µM with SN12C renal; > 100 µM with NCI-H522 lung; 67.4 µM with OVCAR-5 ovarian; 85.2 µM in the assay on NCI-H23 lung; 65.2 µM in the assay with 786-0 renal. In addition, the TGI was 61.3 µM in the assay on EKVX NSCLC, > 100 µM with K-562 leukemia and > 100 µM with NCI/ADR-RES ovarian.

Take `COc1cc(C(=O)O[C@H](C(=O)NCCN(C)CCNC(=O)[C@@H](OC(=O)c2cc(OC)cc3c(C)cccc23)[C@]2(C)CO2)[C@]2(C)CO2)c2cccc(C)c2c1`: the GI50 in the assay on SK-MEL-28 melanoma was 0.171 µM; in the assay on SN12C renal it was < 0.0308 µM; in the assay with OVCAR-5 ovarian it was 0.217 µM; in the assay on NCI-H23 lung it was < 0.01 µM; in the assay with EKVX NSCLC, 0.106 µM; with K-562 leukemia it was < 0.0389 µM. Moreover, the GI50 in the assay on NCI/ADR-RES ovarian is < 0.0506 µM. Moreover, the TGI with SK-MEL-28 melanoma was 0.512 µM; with SN12C renal, 0.3 µM; in the assay on OVCAR-5 ovarian, 2.75 µM; in the assay with NCI-H23 lung, 0.0137 µM; in the assay on 786-0 renal, 0.179 µM; in the assay with EKVX NSCLC it was 1.72 µM. Further, the TGI was found to be 6.85 µM with K-562 leukemia and 1.3 µM in the assay on NCI/ADR-RES ovarian.

With `CCCCc1c2cnccc2c(CCCC)c2c1[nH]c1ccccc12`, the TGI with SK-MEL-28 melanoma was 21.7 µM; in the assay with SN12C renal it was 62.4 µM; in the assay with RXF 393 renal it was 24.9 µM; with NCI-H522 lung, 58.2 µM; in the assay on OVCAR-5 ovarian, > 100 µM; in the assay on NCI-H23 lung, 36.2 µM. Further, the TGI amounted to 24.1 µM in the assay with 786-0 renal, 36 µM in the assay with EKVX NSCLC and 19.9 µM in the assay with K-562 leukemia.

With `Cc1ccc(S(=O)(=O)c2ccc(C)cc2[N+](=O)[O-])cc1`, the TGI with SK-MEL-28 melanoma, in the assay with SN12C renal, with RXF 393 renal, in the assay on NCI-H522 lung, in the assay on OVCAR-5 ovarian and with NCI-H23 lung was > 100 µM in each case. Moreover, the TGI with 786-0 renal, in the assay on EKVX NSCLC and in the assay on K-562 leukemia was > 100 µM in each case.

Regarding `COc1ccc2oc(-c3ccc(OC)c(OC)c3OC)cc(=O)c2c1`, the TGI in the assay on SK-MEL-28 melanoma was > 100 µM; in the assay on SN12C renal, > 100 µM; with RXF 393 renal, 93.8 µM; in the assay on NCI-H522 lung, 68.3 µM; in the assay on OVCAR-5 ovarian, > 100 µM; in the assay on NCI-H23 lung, > 100 µM. The TGI in the assay on 786-0 renal, in the assay on EKVX NSCLC and in the assay on K-562 leukemia was > 100 µM throughout.

As to `CC1=NOC(=O)/C1=C/c1ccc([N+](=O)[O-])cc1`, the TGI with SK-MEL-28 melanoma, in the assay on SN12C renal, in the assay on RXF 393 renal, in the assay on NCI-H522 lung, with OVCAR-5 ovarian and in the assay with NCI-H23 lung was > 100 µM in each case. For the same compound, the TGI in the assay with 786-0 renal, in the assay on EKVX NSCLC and with K-562 leukemia was > 100 µM throughout.

Turning to `Clc1ccc2nc(CI)c(CI)nc2c1`, the GI50 in the assay on SK-MEL-28 melanoma is 14.4 µM; in the assay on SN12C renal it was 2.94 µM; in the assay with RXF 393 renal, 4.04 µM; with OVCAR-5 ovarian, 6.98 µM; in the assay with NCI-H23 lung, 7.37 µM; in the assay on 786-0 renal, 4.07 µM. In addition, the GI50 is 13.6 µM in the assay with EKVX NSCLC, 1.53 µM with K-562 leukemia and 6.8 µM with NCI/ADR-RES ovarian. Besides, the TGI with SK-MEL-28 melanoma was determined as 27.7 µM; in the assay on SN12C renal, 8.62 µM; in the assay with RXF 393 renal, 9.36 µM; with OVCAR-5 ovarian it was 19.5 µM; in the assay on NCI-H23 lung it was 25.8 µM; in the assay on EKVX NSCLC it was 40.9 µM. Moreover, the values for the TGI in the assay with K-562 leukemia and with NCI/ADR-RES ovarian were 7.86 µM and > 57.7 µM, respectively.

For the compound `Cn1nc(C(F)(F)F)c(-c2cc(C(F)(F)F)cc(C(F)(F)F)c2)c1-c1ccc(OCc2ccc(Cl)cc2)cc1O`, the GI50 is 2.32 µM with SK-MEL-28 melanoma; 1.96 µM in the assay with SN12C renal; 2.32 µM in the assay with RXF 393 renal; 1.94 µM with NCI-H522 lung; 3.29 µM in the assay on OVCAR-5 ovarian; 1.64 µM in the assay on NCI-H23 lung. Further, the GI50 with 786-0 renal is 1.63 µM; in the assay with K-562 leukemia it was 0.62 µM; in the assay on NCI/ADR-RES ovarian, 2.81 µM. The TGI worked out at 10.7 µM in the assay with SK-MEL-28 melanoma; 10.3 µM in the assay on SN12C renal; 6.76 µM with RXF 393 renal; 9.16 µM in the assay on NCI-H522 lung; 15 µM in the assay with OVCAR-5 ovarian; 6.93 µM in the assay on NCI-H23 lung. The TGI in the assay on 786-0 renal came out at 3.28 µM; with K-562 leukemia, 10.1 µM; in the assay with NCI/ADR-RES ovarian, 9.8 µM.

`COc1cc(NS(C)(=O)=O)ccc1NCc1c2ccccc2nc2ccccc12`: the TGI is > 100 µM with SK-MEL-28 melanoma; > 100 µM in the assay with SN12C renal; 57.5 µM in the assay with RXF 393 renal; 77.3 µM in the assay with NCI-H522 lung; > 100 µM in the assay with OVCAR-5 ovarian; > 100 µM with NCI-H23 lung. Moreover, the TGI with 786-0 renal, in the assay with EKVX NSCLC and in the assay on K-562 leukemia was > 100 µM each time.
